Like-named read-outs stand apart in the source and are kept apart here.
Experiments:
[1] = test system: MCP-1 response in THP-1 cells; assay: Calcium flux in THP-1 cells stimulated with human MCP-1 (FLIPR); type: cell-based; conditions: read-out: Calcium Flux IC50
Protocol: Compounds of were evaluated for their effect on calcium flux using methodology known in the art, e.g., Neote et al., Cell 1993, 72:415–425. Briefly, THP-1 cells were incubated with the fluorescence dye FLUO-4 for 1 hour, the cells were washed after this loading period, resuspended in HANKs buffer, and loaded into a 384-well plate. The cells were then incubated in the presence of a compound of Example 1–12, 14, 18, 22–23, 27–28, 30, or [bis-(4-chloro-phenyl)-methanesulfonyl]-acetic acid methyl ester. After a 30-minute incubation period, the cells were stimulated with 33 nM human MCP-1 and the calcium flux response recorded and quantified with a FLIPR^384® (384-well Fluorometric Imaging Plate Reader) ([…], Sunnyvale, Calif.). The IC50's (μM) of the inhibition of the maximal MCP-1 response are set out in Table 1.

[2] = molecular target: T1, MCP-1 receptor (300-19 cell membranes) (Homo sapiens, UniProt P41597); assay: Inhibition of binding of 125I-MCP-1 to 300-19 cell membranes
T1 construct: host or cells: 300-19 cells (membrane preparation)
T1 sequence (P41597 whole entry): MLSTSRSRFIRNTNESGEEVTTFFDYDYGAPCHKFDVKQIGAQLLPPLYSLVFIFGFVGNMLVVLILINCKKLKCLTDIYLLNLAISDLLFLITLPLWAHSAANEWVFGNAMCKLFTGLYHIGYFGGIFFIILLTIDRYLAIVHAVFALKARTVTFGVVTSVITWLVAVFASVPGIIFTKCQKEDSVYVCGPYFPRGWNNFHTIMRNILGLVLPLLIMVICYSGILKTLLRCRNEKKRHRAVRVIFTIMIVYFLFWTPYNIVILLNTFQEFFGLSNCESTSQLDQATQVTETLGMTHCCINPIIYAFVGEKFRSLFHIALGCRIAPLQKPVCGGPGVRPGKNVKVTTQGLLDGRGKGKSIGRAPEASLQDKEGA
Protocol: Compounds were also assayed for their ability to inhibit the binding of radiolabeled MCP-1 to cell membranes. The materials and methods are set out below.
Membrane Preparation. 300-19 cells were harvested by centrifugation and washed with PBS (Dulbecco's phosphate-buffered saline w/o Ca and Mg). Cells were frozen at −80° C. overnight then resuspensed in ice cold lysis buffer (5 mM HEPES, 2 mM EDTA, 10 μg/mL of leupeptin, aprotinin, and chymostatin, and 200 μg/mL PMSF). The cell suspension was centrifuged at 1,000 rpm for 10 minutes and the supernatant was transferred and centrifuged at 14,000 rpm for 45 minutes at 4° C. then discarded. The resulting pellet was resuspended in stock buffer (10 mM HEPES, 300 mM sucrose, 20 μg/mL of leupeptin, aprotinin, and chymostatin, and 200 μg/mL PMSF), aliquoted, and frozen at −80° C. until use. Typical binding assays used 1.0 μg/well protein.
Prepared membranes were resuspended in binding buffer (50 mM Tris, 10 mM MgCl2, 1 mM EDTA pH 7.4) at 10 μg/mL protein. Membranes (1.0 μg/well) were incubated with ^125I-MCP-1 (0.15 nM) in the absence or presence of unlabeled chemokine (465 nM) or a compound of Examples 1–11, 14, 16, 19, 22, 27–30, 33–34, or [bis-(4-chloro-phenyl)-methanesulfonyl]-acetic acid methyl ester (0.001 μM–40 μM) for 3 hours at room temperature in a 96-well plate (total volume 250 μL). The reaction was terminated by filtration using a 96-well plate harvester (Packard Filtermate 196 Harvester). Filters (Packard GF/C) were prewet with 0.3% PEI containing 0.5% BSA and washed 5 times with wash buffer (DPBS, 0.3 MnCl2, and 0.25% BSA) prior to reaction termination. After terminating the reaction, filters were washed 6 times with wash buffer, and allowed to dry overnight. Scintillation fluid (Packard's Micro Scint 20) was added to each well and radioactivity bound was determined by liquid scintillation spectrometry. Nonspecific binding was determined in the presence of 465 nM unlabeled MCP-1. The IC50's (μM) of the inhibition of the binding of the iodinated MCP-1 are set out in Table 2.

[3] = 0.5 h, THP-1 cells, 30-minute incubation, stimulated with 33 nM human MCP-1, inhibition of the maximal MCP-1 response
[4] = 300-19 cell membranes 1.0 μg/well, 125I-MCP-1 0.15 nM, 3 hours at room temperature, read-out: IC50 of the inhibition of the binding of the iodinated MCP-1

Q: Which melting point does the source give for O=C(COc1ccc(F)cc1F)CS(=O)(=O)C(c1ccc(Cl)cc1)c1ccc(Cl)cc1 here?
A: The melting point was 54 to 56 °C.

Q: For C/C=C/C(=O)CS(=O)(=O)C(c1ccc(Cl)cc1)c1ccc(Cl)cc1, which melting point is on record?
A: Its melting point is 114 to 116 °C.

Q: For CN(C)C(=O)c1ccc(C(=O)CSC(c2ccc(Cl)cc2)c2ccc(Cl)cc2)s1, which melting point is on record?
A: Its melting point is 150 to 151 °C.

Q: With CC(C)(C)C(=O)CS(=O)(=O)C(c1ccc(Cl)cc1)c1ccc(Cl)cc1 as the compound, how does the melting point read?
A: Its melting point is 128 to 130 °C.

Q: With O=C(CCc1ccccc1)CS(=O)(=O)C(c1ccc(Cl)cc1)c1ccc(Cl)cc1 as the compound, how does the melting point read?
A: Its melting point is 106 to 107 °C.

Q: Which melting point does the source give for CC(=O)CCS(=O)(=O)C(c1ccc(Cl)cc1)c1ccc(Cl)cc1 here?
A: The melting point was 103 to 105 °C.

Q: Which melting point does the source give for CC(=O)OCC(=O)CS(=O)(=O)C(c1ccc(Cl)cc1)c1ccc(Cl)cc1 here?
A: The melting point was 57 to 60 °C.

Q: For O=C(CC(F)(F)F)CS(=O)(=O)C(c1ccc(Cl)cc1)c1ccc(Cl)cc1, which melting point is on record?
A: The melting point was 48 to 50 °C.

Q: With CC(C)Cc1ccc(C(c2ccc(Cl)cc2)S(=O)(=O)CC(=O)C(F)(F)F)cc1 (stereo not shown) as the compound, how does the melting point read?
A: Its melting point is 45 to 50 °C.

Q: Which results are given for CC(=O)CS(=O)(=O)C(c1ccc(Cl)cc1)c1ccc(Cl)cc1 [Example 1, 1-[Bis-(4-chloro-phenyl)-methanesulfonyl]-propan-2-one]?
A: IC50 ([1]; Homo sapiens, THP-1, 0.5 h): 2200 nM; IC50 [2]: 1150 nM; melting point: 114 to 115 °C

Q: Which IC50 ([1]; Homo sapiens, THP-1, 0.5 h) does the source give for CCC(=O)CS(=O)(=O)C(c1ccc(Cl)cc1)c1ccc(Cl)cc1 [Example 2, 1-[Bis-(4-chloro-phenyl)-methanesulfonyl]-butan-2-one] here?
A: The IC50 was 7650 nM.

Q: And the IC50 [2]?
A: Its IC50 is 7370 nM.

Q: What does the source list for O=C(CBr)CS(=O)(=O)C(c1ccc(Cl)cc1)c1ccc(Cl)cc1 [Example 3, 1-[Bis-(4-chloro-phenyl)-methanesulfonyl]-3-bromo-propan-2-one]?
A: IC50 [1, 3]: 1120 nM; IC50 [2, 4]: 165 nM; melting point: 122 to 123 °C

Q: For O=C(CS(=O)(=O)C(c1ccc(Cl)cc1)c1ccc(Cl)cc1)c1ccco1 [Example 5, 2-[Bis-(4-chloro-phenyl)-methanesulfonyl]-1-furan-2-yl-ethanone], which IC50 [1, 3] is on record?
A: The IC50 was 7250 nM.

Q: What about the IC50 [2, 4] of the same compound?
A: Its IC50 is 2550 nM.

Q: And the melting point?
A: The melting point was 138 to 139 °C.

Q: For CC#CC(=O)CS(=O)(=O)C(c1ccc(Cl)cc1)c1ccc(Cl)cc1 [Example 6, 1-[Bis-(4-chloro-phenyl)-methanesulfonyl]-pent-3-yn-2-one], which IC50 [1, 3] is on record?
A: The IC50 was 1340 nM.

Q: With O=C(Cc1ccccc1)CS(=O)(=O)C(c1ccc(Cl)cc1)c1ccc(Cl)cc1 [Example 9, 1-[Bis-(4-chloro-phenyl)-methanesulfonyl]-3-phenyl-propan-2-one] as the compound, how does the IC50 [1, 3] read?
A: The IC50 was 2900 nM.

Q: And the IC50 [2, 4]?
A: The IC50 was 6300 nM.

Q: And the melting point?
A: Its melting point is 54 to 56 °C.

Q: What does the source list for O=C(COc1ccccc1)CS(=O)(=O)C(c1ccc(Cl)cc1)c1ccc(Cl)cc1 [Example 10, 1-[Bis-(4-chloro-phenyl)-methanesulfonyl]-3-phenoxy-propan-2-one]?
A: IC50 [1, 3]: 984 nM; IC50 [2, 4]: 3450 nM; melting point: 110 to 112 °C

Q: For COc1ccc(OCC(=O)CS(=O)(=O)C(c2ccc(Cl)cc2)c2ccc(Cl)cc2)cc1 [Example 11, 1-[Bis-(4-chloro-phenyl)-methanesulfonyl]-3-(4-methoxy-phenoxy)-propan-2-one], which IC50 [1, 3] is on record?
A: Its IC50 is 4750 nM.

Q: And the IC50 [2, 4]?
A: Its IC50 is 3400 nM.

Q: What about the melting point of the same compound?
A: The melting point was 116 to 117 °C.

Q: Which results are given for O=C(COc1ccc(Cl)cc1)CS(=O)(=O)C(c1ccc(Cl)cc1)c1ccc(Cl)cc1 [Example 12, 1-[Bis-(4-chloro-phenyl)-methanesulfonyl]-3-(4-chloro-phenoxy)-propan-2-one]?
A: IC50 [1, 3]: 8150 nM; melting point: 105 to 107 °C

Q: For COCC(=O)CS(=O)(=O)C(c1ccc(Cl)cc1)c1ccc(Cl)cc1 [Example 14, 1-[Bis-(4-chloro-phenyl)-methanesulfonyl]-3-methoxy-propan-2-one], which IC50 ([1]; Homo sapiens, THP-1, 0.5 h) is on record?
A: The IC50 was 3900 nM.

Q: What about the IC50 [2] of the same compound?
A: Its IC50 is 1350 nM.

Q: And the melting point?
A: The melting point was 124 to 125 °C.

Q: Which results are given for Cn1ccnc1C(=O)CS(=O)(=O)C(c1ccc(Cl)cc1)c1ccc(Cl)cc1 [Example 16, 2-[Bis-(4-chloro-phenyl)-methanesulfonyl]-1-(1-methyl-1H-imidazol-2-yl)-ethanone]?
A: IC50 [2, 4]: 12700 nM; melting point: 160 to 161 °C

Q: For CN(C)C(=O)c1ccc(C(=O)CS(=O)(=O)C(c2ccc(Cl)cc2)c2ccc(Cl)cc2)s1 [Example 18, 5-(2-[Bis-(4-chloro-phenyl)-methanesulfonyl]-acetyl)-thiophene-2-carboxylic acid dimethylamide], which IC50 [1, 3] is on record?
A: The IC50 was 5200 nM.

Q: What about the melting point of the same compound?
A: Its melting point is 192 to 194 °C.

Q: Which results are given for O=C(CS(=O)(=O)C(c1ccc(Cl)cc1)c1ccc(Cl)cc1)c1cccs1 [Example 19, 2-[Bis-(4-chloro-phenyl)-methanesulfonyl]-1-thiophen-2-yl-ethanone]?
A: IC50 [2, 4]: 6150 nM; melting point: 150 to 151 °C

Q: Which results are given for COC(=O)CC(=O)CS(=O)(=O)C(c1ccc(Cl)cc1)c1ccc(Cl)cc1 [Example 22, 4-[Bis-(4-chloro-phenyl)-methanesulfonyl]-3-oxo-butyric acid methyl ester]?
A: IC50 [1, 3]: 2470 nM; IC50 [2, 4]: 1270 nM; melting point: 76 to 78 °C

Q: With O=C(CC(=O)Nc1ccccc1Cl)CS(=O)(=O)C(c1ccc(Cl)cc1)c1ccc(Cl)cc1 [Example 23, 4-[Bis-(4-chloro-phenyl)-methanesulfonyl]-N-(2-chloro-phenyl)-3-oxo-butyramide] as the compound, how does the IC50 [1, 3] read?
A: Its IC50 is 1520 nM.

Q: What about the melting point of the same compound?
A: The melting point was 92 to 95 °C.

Q: What does the source list for O=C(CS(=O)(=O)Cc1ccccc1)CS(=O)(=O)C(c1ccc(Cl)cc1)c1ccc(Cl)cc1 [Example 27, 1-[Bis-(4-chloro-phenyl)-methanesulfonyl]-3-phenylmethanesulfonyl-propan-2-one]?
A: IC50 [1, 3]: 6520 nM; IC50 [2, 4]: 2700 nM; melting point: 72 to 90 °C

Q: Which IC50 ([1]; Homo sapiens, THP-1, 0.5 h) does the source give for O=S(=O)(CC(O)(O)C(F)(F)F)C(c1ccc(F)cc1)c1ccc(F)cc1 [Example 28, 3-[Bis(4-fluorophenyl)methanesulfonyl]-1,1,1-trifluoropropane-2,2-diol] here?
A: Its IC50 is 417 nM.

Q: And the IC50 [2]?
A: Its IC50 is 210 nM.

Q: With O=S(=O)(CC(O)(O)C(F)(F)F)C(c1ccc(C(F)(F)F)cc1)c1ccc(C(F)(F)F)cc1 [Example 29, 3-[Bis(4-trifluoromethyl-phenyl)methanesulfonyl]-1,1,1-trifluoropropane-2,2-diol] as the compound, how does the IC50 [2, 4] read?
A: The IC50 was 3000 nM.

Q: With O=S(=O)(CC(O)(O)C(F)(F)F)C(c1ccc(Cl)cc1)c1ccc(Cl)c(Cl)c1 (stereo not shown) [Example 30, 3-[(4-Chlorophenyl)-(3,4-dichlorophenyl)methanesulfonyl]-1,1,1-trifluoropropane-2,2-diol] as the compound, how does the IC50 [1, 3] read?
A: The IC50 was 393 nM.

Q: What about the IC50 [2, 4] of the same compound?
A: Its IC50 is 77 nM.

Q: With O=C(Cc1ccc(F)cc1)CS(=O)(=O)C(c1ccc(Cl)cc1)c1ccc(Cl)cc1 [Example 33, 1-[Bis-(4-chloro-phenyl)-methanesulfonyl]-3-(4-fluoro-phenyl)-propan-2-one] as the compound, how does the IC50 [2, 4] read?
A: Its IC50 is 14500 nM.

Q: And the melting point?
A: The melting point was 106 to 107 °C.

Q: For O=C(CS(=O)(=O)C(c1ccc(Cl)cc1)c1ccc(Cl)cc1)c1ccccn1 [Example 34, 2-[Bis-(4-chloro-phenyl)-methanesulfonyl]-1-pyridin-2-yl-ethanone], which IC50 [2, 4] is on record?
A: Its IC50 is 4250 nM.

Q: And the melting point?
A: Its melting point is 120 to 121 °C.

Source: patent publication US7067538B2, “MCP-1 receptor antagonists and methods of use thereof” (Warner-Lambert Company, LLC, priority 2002, dated 2006)
